Results published in patent publication US20230012936A1, “COMBINATION THERAPY USING GLUCAGON AND GLP-1 CO-AGONISTS FOR THE TREATMENT OF OBESITY” (MEDIMMUNE, LLC, priority 2019, published 2023).
Where two headings read alike, the source gives them in different places.

Legend:
Type in all cases: in vivo, human
[1] = Pharmacokinetics of cotadutide in plasma (LC-MS/MS)
Description: The Cmax and the corresponding tmax were identified from the observed data. Log-linear regression of the terminal phase yielded the terminal rate constant (λz). The area under the plasma concentration time-curve during the dosing interval (AUCτ) was calculated by the log-linear trapezoidal rule. The area under the curve to infinity (AUC0-inf) was calculated as the sum of AUC(o-t) and Ct/z, where Ct is the observed plasma concentration obtained from the log-linear regression analysis of the last quantifiable time point and z is the terminal phase rate constant. Clearance (CL/F) was determined by dose/AUC0-inf, and the terminal half-life (t1/2) was calculated as 0.693/λz.

[2] = Safety: adverse events, laboratory values, vital signs, ECG
Description: Blood samples were collected to evaluate anti-drug antibody (ADA) response to cotadutide. Serum samples were evaluated for ADA using a validated immunoassay. Adverse events (AEs) and serious adverse events (SAEs) were collected from the time of informed consent throughout the treatment period and including the follow-up period. AEs and SAEs were graded by severity and relationship to investigational product and SAEs were assessed for relationship to protocol procedures.

[3] = test system: overweight/obese subjects with Type 2 Diabetes Mellitus (T2DM); settings: for Change from baseline in percentage of CGM glucose readings within the hyperglycemic range, mean: glucose >180 mg/dL; for Change from baseline in percentage of CGM glucose readings within the euglycemic range, mean: glucose ≥70 and ≤180 mg/dL; for 7-Day CGM mean glucose, mean / 7-Day CGM mean glucose, median: post-hoc
From the text: A continuous glucose monitoring (CGM) device was used to measure interstitial glucose levels during the study. Subjects wore the CGM sensor continuously up until the time of a sensor change (every 7 to 14 days). If a subject was unable to tolerate wearing the CGM sensor for the entire duration of the study, the sensor was to be removed; but the subject should have remained in the study with or without continued CGM.
Subjects underwent continuous glucose monitoring (CGM) for a total of 28 days with sensor changes every 7 to 14 days. The changes in CGM glucose AUC0-24 h and mean glucose over 24 hours from baseline to the end of each dosing level on Days 7 (100 μg), 14 (200 μg), and 28 (300 μg) were measured. Variability in glucose levels was also assessed by measuring the changes in standard deviation (SD), coefficient of variation (CV), and mean amplitude of glucose excursion (MAGE) of CGM glucose values over 24 hours.
Changes from baseline in the percentages of 24-hour CGM glucose readings that fell within the euglycemic, hyperglycemic, hypoglycemic, and clinically significant hypoglycemic ranges were assessed at the end of each dosing level.
In addition, a post-hoc analysis of CGM mean glucose over 7 days was conducted to further evaluate the effect of cotadutide on glucose control at each dose level.

CCCCCCCCCCCCCCCC(=O)N[C@@H](CCC(=O)NCCCC[C@H](NC(=O)[C@H](CC(=O)O)NC(=O)[C@H](CO)NC(=O)[C@@H](NC(=O)[C@H](Cc1ccccc1)NC(=O)[C@@H](NC(=O)CNC(=O)[C@H](CCC(N)=O)NC(=O)[C@H](CO)NC(=O)[C@@H](N)Cc1c[nH]cn1)[C@@H](C)O)[C@@H](C)O)C(=O)N[C@@H](CO)C(=O)N[C@@H](CCC(=O)O)C(=O)N[C@@H](Cc1ccc(O)cc1)C(=O)N[C@@H](CC(C)C)C(=O)N[C@@H](CC(=O)O)C(=O)N[C@@H](CO)C(=O)N[C@@H](CCC(=O)O)C(=O)N[C@@H](CCCNC(=N)N)C(=O)N[C@@H](C)C(=O)N[C@@H](CCCNC(=N)N)C(=O)N[C@@H](CC(=O)O)C(=O)N[C@@H](Cc1ccccc1)C(=O)N[C@H](C(=O)N[C@@H](C)C(=O)N[C@@H](Cc1c[nH]c2ccccc12)C(=O)N[C@@H](CC(C)C)C(=O)N[C@@H](CCC(=O)O)C(=O)N[C@@H](C)C(=O)NCC(=O)NCC(=O)O)C(C)C)C(=O)O [Cotadutide]
Effect of dapagliflozin on cotadutide clinical PK ([1]; cotadutide 100 to 300 μg/day): not affected by the presence of dapagliflozin | half-life ([1]; human, plasma, subcutaneous, 300 ug, across doses 100, 200 and 300 μg, read-out: Cotadutide half-life t1/2): 528 to 546 min | Incidence of treatment-emergent adverse events (TEAEs) ([2]; As-treated, 28 days): 52.0% | Subjects with a TEAE that led to discontinuation of investigational product ([2]; abdominal pain and vomiting): Two | Incidence of investigational product-related TEAEs ([2]; as judged by the investigator): 40.0% | Heart rate ([2]; compared with the placebo group): increased heart rate was observed | Blood pressure (BP) ([2]; in vivo): No meaningful changes | Hematology, serum chemistry, or urinalysis laboratory values ([2]; in vivo): no clinically meaningful trends | Severity of TEAEs ([2]; in vivo): mild (Grade 1) or moderate (Grade 2) | Electrocardiogram (ECG) parameters ([2]; with the exception of heart rate): no clinically meaningful trends | Change from baseline in CGM mean glucose over 24 hours, mean ([3]; Day 7 (100 μg)): -34.74 mg/dL | Change from baseline in MAGE of CGM glucose, mean ([3]; Day 7 (100 μg)): -25.74 mg/dL | Change in CGM glucose AUC0-24 h from baseline, mean ([3]; Day 7 (100 μg)): -832.66 mg·h/dL | Change in CGM glucose AUC0-24 h from baseline, median ([3]; Day 7 (100 μg)): -962.95 mg·h/dL | Change in SD over 24 hours in CGM glucose from baseline, mean ([3]; Day 7 (100 μg)): -7.21 mg/dL | Change in SD over 24 hours in CGM glucose from baseline, median ([3]; Day 7 (100 μg)): -11.16 mg/dL | Change from baseline in percentage of CGM glucose readings within the hyperglycemic range, mean ([3]; Day 7): −13.99% | Change from baseline in percentage of CGM glucose readings within the euglycemic range, mean ([3]; Day 7): 7.12% | Change from baseline in CGM mean glucose over 24 hours, mean ([3]; Day 14 (200 μg)): -28.34 mg/dL | Change from baseline in MAGE of CGM glucose, mean ([3]; Day 14 (200 μg)): -26.59 mg/dL | Change in CGM glucose AUC0-24 h from baseline, mean ([3]; Day 14 (200 μg)): -666.05 mg·h/dL | Change in CGM glucose AUC0-24 h from baseline, median ([3]; Day 14 (200 μg)): -897.02 mg·h/dL | Change in SD over 24 hours in CGM glucose from baseline, mean ([3]; Day 14 (200 μg)): -7.52 mg/dL | Change in SD over 24 hours in CGM glucose from baseline, median ([3]; Day 14 (200 μg)): -8.36 mg/dL | Change from baseline in percentage of CGM glucose readings within the hyperglycemic range, mean ([3]; Day 14): −9.81% | Change from baseline in percentage of CGM glucose readings within the euglycemic range, mean ([3]; Day 14): 5.31% | Change in CGM glucose AUC0-24 h from baseline, mean ([3]; Day 28 (LOCF) (300 μg)): -695.16 mg·h/dL | Change in CGM glucose AUC0-24 h from baseline, median ([3]; Day 28 (LOCF) (300 μg)): -928.48 mg·h/dL | Change in SD over 24 hours in CGM glucose from baseline, mean ([3]; Day 28 (LOCF) (300 μg)): -8.89 mg/dL | Change in SD over 24 hours in CGM glucose from baseline, median ([3]; Day 28 (LOCF) (300 μg)): -9.57 mg/dL | Change in CGM glucose AUC0-24 h from baseline, LS mean ([3]; Day 28 (LOCF), ANCOVA): -658.64 mg·h/dL | Change in SD over 24 hours in CGM glucose from baseline, LS mean ([3]; Day 28 (LOCF), ANCOVA): -9.73 mg/dL | Change in SD over 24 hours in CGM glucose from baseline, LS mean difference ([3]; Day 28 (LOCF), vs placebo): -8.45 mg/dL | Change in CGM glucose AUC0-24 h from baseline, LS mean difference ([3]; Day 28 (LOCF), vs placebo, ANCOVA): -806.61 mg·h/dL | CV of CGM glucose over 24 hours, change from baseline, LS mean difference ([3]; Day 28, vs placebo): −2.41% | Change from baseline in CGM mean glucose over 24 hours, LS mean difference ([3]; Day 28, vs placebo): -34.06 mg/dL | Change from baseline in MAGE of CGM glucose, LS mean difference ([3]; Day 28, vs placebo): -24.83 mg/dL | Change from baseline in percentage of CGM glucose readings within the euglycemic range, LS mean difference ([3]; Day 28, vs placebo): 8.78% | Change from baseline in percentage of CGM glucose readings within the hyperglycemic range, LS mean difference ([3]; Day 28, vs placebo): −12.83% | 7-Day CGM mean glucose, mean ([3]; Days 1 to 7 (100 μg dose)): 116.82 mg/dL | 7-Day CGM mean glucose, median ([3]; Days 1 to 7 (100 μg dose)): 111.40 mg/dL | 7-Day CGM mean glucose, mean ([3]; Days 8 to 14 (200 μg dose)): 118.78 mg/dL | 7-Day CGM mean glucose, median ([3]; Days 8 to 14 (200 μg dose)): 113.48 mg/dL | 7-Day CGM mean glucose, mean ([3]; Days 15 to 21 (300 μg dose)): 120.94 mg/dL | 7-Day CGM mean glucose, median ([3]; Days 15 to 21 (300 μg dose)): 106.17 mg/dL | 7-Day CGM mean glucose, mean ([3]; Days 22 to 28 (300 μg dose)): 115.61 mg/dL | 7-Day CGM mean glucose, median ([3]; Days 22 to 28 (300 μg dose)): 108.78 mg/dL | Change from baseline in percentage of CGM glucose readings within the hypoglycemic range, LS mean difference ([3]; in vivo): 3.35%
